# Laboratory results from US20220362177A1, “CERAMIDE RATIOS AS PREDICTIVE AND THERAPEUTIC BIOMARKERS FOR LEUKEMIAS” (University of Virginia Patent Foundation, priority 2019, published 2022).
# Columns and labels:
# [1] = test system: Mcl-1; experiment: Western blot of treated MOLM-14 cells; format: cell-based; details: MOLM-14, 24 hours
# Protocol: After centrifugation for 15 minutes at 13-14000×g at 10° C. supernatants were mixed with one-third of a volume of NUPAGE™ LDS 4× Sample Buffer (Thermo Fisher Scientific) containing 5% 2-mercaptoethanol. Protein samples were prepared by heating at 37° C. for 10 min after the addition of denaturing sample buffer. […] Primary and secondary antibodies were to diluted in 0.05% TBS/Tween-20 containing 0.05% Casein Blocker. Protein bands were visualized using a commercially available chemiluminescence kit (Thermo Fisher Scientific) or by infrared laser scanner using ChemiXX6 G:box imager (Syngene, Frederick, Md., United States of America).
# [2] = test system: XIAP; experiment: Western blot of treated MOLM-14 cells; format: cell-based; details: MOLM-14, 24 hours
# Protocol: (§1) FIGS. 7A-7I. CAV treatment alters expression of genes involved in cell survival relevant to AraC and Venetoclax resistance mechanism. MOLM-14 cells were treated with the listed conditions for 24 hours and protein harvested. Western blots were performed and quantitated via densitometry. Representative blots are shown in FIG. 7A and quantification in FIGS. 7B-7I. *: significant to Vehicle.
# (§2) Western blotting: Whole cell lysates were prepared by dissolving cells in FOCUS™ Extraction Buffer III (G-Biosciences, St. Louis, Mo., United States of America; Catalog No. 786-222) containing protease inhibitors (Thermo Fisher Scientific Catalog No. A32955) for 10-15 minutes on ice with occasional shaking. After centrifugation for 15 minutes at 13-14000×g at 10° C. supernatants were mixed with one-third of a volume of NUPAGE™ LDS 4× Sample Buffer (Thermo Fisher Scientific) containing 5% 2-mercaptoethanol. Protein samples were prepared by heating at 37° C. for 10 min after the addition of denaturing sample buffer. Proteins were separated using SDS-PAGE on a 4-12% gel (Thermo Fisher Scientific) and transferred to Immobilon membrane (Bio-Rad). […]
# [3] = test system: Survivin; experiment: Western blot of treated MOLM-14 cells; format: cell-based; details: MOLM-14, 24 hours, independently
# Protocol: as §1, §2
# [4] = test system: ceramide levels; experiment: Lipidomics (LC/MS) of ceramide levels in treated cells; format: cell-based; details: 24 hrs
# From the text: Lipidomics: Lipids were extracted from cell lysates and analyzed on an Acquity I-Class/Xevo TQ-S Micro IVD System (Waters Corporation, Milford, Mass., United States of America) as described previously (Pearson et al. (2020) Ceramide Analogue SACLAC Modulates Sphingolipid Levels and MCL-1 Splicing to Induce Apoptosis in Acute Myeloid Leukemia. Mol Cancer Res 18(3):352-363). Mass spectrometry peaks were compared to internal standards, and all data are represented as picomoles of lipid per milligram of protein.
# To determine potential metabolic mechanism underlying the efficacy of combinatorial CNL/AraC/Venetoclax (CAV) treatment, lipids were harvested to measure the effect of Venetoclax and AraC upon CNL metabolism by LC/MS. Cells were treated individually or in combination with CNL, Ara-C, and/or Venetoclax for 24 hrs. […] This lead to an increase in the C16/C24 ratio, which might support a pro-mitogenic response (FIG. 6H).
# [5] = test system: C1498 AML cells; experiment: Syngeneic C1498-luc AML model in C57BL/6J mice; format: in vivo, mouse
# Protocol: FIG. 8C: Survival of C1498-bearing C57BL/6J mice were treated with either Control (Lip-Ghost), CNL (31.2 mg/kg), Cytarabine (75 mg/kg) or CNL+Cytarabine.
# We initially utilized the immune-compromised NRG mice engrafted with MOLM-13 cells expressing luciferase. Mice were engrafted, treated with the various drug combinations, and disease burden measured by live animal luminescence and Kaplan-Meier curve. […] C1498 cells are a de novo AML cell line from a C57-blkJ mouse. […] Given this, no Venetoclax groups were included. C57-blkJ mice were injected with C1498 AML cells transduced to express luciferase.
# [6] = test system: MOLM-14; experiment: MTS cell viability assay; format: cell-based; details: MOLM-14, ceramides for 24 hours, with CNL
# Protocol: FIG. 4. Ceramide chain length altered biological and biophysical responses. MOLM-14 cells were treated with the indicated ceramides for 24 hours and viability was assessed by MTS.
# MTS Cell Viability Assay: Cytotoxicity of nanoliposomal ceramide in AML cells was measured by plating 15,000 cells/well into 96-well plates followed by growth for 24 hours in a humidified 37° C. cell culture incubator in the presence of ghost liposomes, CNL or other drugs for 24 hours in 10% serum medium. After 24 h, MTS/PMS mixture was added and adsorption was read at 560 nm using Bio-Tek plate reader.
# Cell viability MTS assays were performed in three AML cells lines: OCI-AML2, KG-1, AND MOLM-14 to determine their sensitivities to co-treatment with CNL, Ara-C, and Venetoclax. Table 1 summarized these cell lines, their sources, and the known driver mutations that are present in the cell lines. The cells lines were treated with concentrations that had been determined to be less than the EC50 so any synergistic or additive effects could be observed.
# [7] = test system: AML cells; details: recent studies by others; cited from earlier work
compound,measurement,setting,value
"Nc1ccn([C@@H]2O[C@H](CO)[C@@H](O)[C@@H]2O)c(=O)n1 [AraC, cytarabine]",Mcl-1 expression,[1],not
same,XIAP expression,[2],not
same,Survivin expression levels,[3],increased expression levels
same,ceramide levels,[4]; single agent,significantly elevated
same,ceramide levels,[4]; with co-treatment of CNL,raise ceramide levels
same,median survival time,"[5]; C1498-bearing C57BL/6J mice, CNL 31.2 mg/kg, Cytarabine 75 mg/kg, treated 7 days",41 days
same,survival,"[5]; C1498 model, single agent",moderate increase in survival
CCCCCCCCCCCCC/C=C/[C@@H](O)[C@H](CO)NC(=O)CCCCCCCCCCCCCCC [C16 ceramide],potentiation of CNL-induced cell death,[6],potentiated
CCCCCCCCCCCCC/C=C/[C@@H](O)[C@H](CO)NC(=O)CCCCCCCCCCCCCCCCCCCCCCC [C24 ceramide],potentiation of CNL-induced cell death,[6],not
CCCCCCCCc1ccc(CCC(N)(CO)CO)cc1 [FTY720],apoptosis / death of AML cells,[7],rapidly induced ceramide-mediated apoptosis
